Data published in patent US20070027143A1, “Novel substituted 2,3-benzodiazepine derivatives” (priority 2003, published 2007).
Where two headings read alike, the source gives them in different places. Marks after values point to notes of the source that are not given here.

Legend:
AMPA/kainate receptors = test: Inhibition of AMPA induced whole-cell current in acutely isolated cerebellar Purkinje cells (patch clamp); assay type: cell-based; conditions: 5 μM AMPA, read-out: Inhibition of the ion-currents caused by 5 μM AMPA, IC50
Method in brief: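 Whole-cell patch-clamp on acutely isolated cerebellar Purkinje cells; current evoked by 5 μM AMPA, with compound activity measured as inhibition of this AMPA-induced current.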

CD1 mice [1] = test: Anticonvulsant activity, strychnine induced seizures; assay type: in vivo; conditions: Mus musculus; po.; read-out: Strychnine ED50
Method in brief: (§1)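 Male CD1 mice (10 per dose) received test compounds orally at three dose levels, usually 60 min before chemical induction of clonic-tonic seizures and lethality.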

CD1 mice [2] = test: Anticonvulsant activity, nicotine induced seizures; assay type: in vivo; conditions: Mus musculus; po.
Method in brief: as §1

Lewis rats [3] = test: Autoimmune encephalomyelitis model, neurological (clinical) symptoms; assay type: in vivo; conditions: for Neurological symptoms (change, %): day 24 after immunization; for change in vivo at 1.875 mg/kg / change in vivo at 3.75 mg/kg / change in vivo at 7.5 mg/kg / change in vivo at 15 mg/kg / change in vivo at 0.2 mg/kg / change in vivo at 0.5 mg/kg / change in vivo at 1 mg/kg / change in vivo at 30 mg/kg: Rattus norvegicus, read-out: Neurological symptoms (change compared to controls, %)
CD1 mice [4] = test: Anti-tremor effect, harmaline induced tremor; assay type: in vivo; conditions: po., Litchfield-Wilcoxon, limits in brackets
BN rats = test: Bronchial hyperresponsiveness of ovalbumin sensitized, antigen challenged BN rats (tracheal rings, acetylcholine); assay type: in vivo; conditions: 3.0 mg/kg po, 2 hours pre-challenge, mean ± SE
Excerpt: Bronchial hyperresponsiveness (BHR) and airway eosinophilia (AEP) are characteristic features of bronchial asthma. BHR is typified by an exaggerated response to a wide variety of stimuli that can induce an increased resistance to airflow in the airways. AEP is a result of prolonged eosinophil infiltration, mast cell, and T cell activation in the airways. In actively (e.g., ovalbumin) immunized rats (e.g., Brown Norway [BN] strain), repeated sensitization followed by antigenic challenge results in lung eosinophilia and bronchial hyperresponsiveness to different spasmogens (e.g., acetylcholine). This is the most frequently employed model for studying potential anti-asthmatic effects of new chemical entities.
BN rats were actively immunized with allergen (ovalbumin). On day one, rats were sensitized with the subcutaneous administration of ovalbumin suspended in Al(OH)3 (2.5 μg ovalbumin +20 mg Al(OH)3 in 0.5 ml saline). Booster injections (same dose and same route) were given at day 14 and 21. Simultaneously at each occasion 0.25 ml of Bordatella pentussis vaccine was injected intraperitoneally. On day 28, animals were challenged by inhalation of the antigen (vaporized 1% OVA solution for 1 hour). Test compounds were administered orally 2 hours pre-challenge.
48 hours following challenge, they were sacrificed by an overdose of urethane (4-5 ml of 15% urethane given i.p.), bronchoalveolar lavage fluid (BALF) was obtained, and tracheae dissected from the animals. Eosinophil cell count (cells/ml BALF) was determined manually using a selective stain for eosinophils and counting the cells in a Buerker chamber. BHR was determined using tracheal rings suspended in an organ bath. After an equilibration period of 30 minutes, cumulative concentration response curves to acetylcholine were determined. Maximal response of control (unchallenged, non-treated) tracheal rings is obtained at 10^−3 M acetylcholine. The height of this response is defined as 100%. All other contractions are expressed as a percentage and related to the control response.

Lewis rats [5] = test: Autoimmune encephalomyelitis model, neurological (clinical) symptoms; assay type: in vivo; conditions: Rattus norvegicus, po, female rats, read-out: Neurological symptoms (change compared to controls, %); for change in vivo at 3.75 mg/kg: 3.75 mg/kg p.o.
epilepsy patients = conditions: Bialer et al.; cited from earlier work
[6] = ip, 1.875 mg/kg ip., female rats, 0-8 day
[7] = ip, 1.875 mg/kg ip., female rats, 0-14 day
[8] = ip, 3.75 mg/kg ip., female rats, 0-8 day
[9] = ip, 3.75 mg/kg ip., female rats, 0-14 day
[10] = ip, 15 mg/kg ip., female rats, 0-8 day
[11] = ip, 15 mg/kg ip., female rats, 0-14 day
[12] = ip, 15 mg/kg ip., male rats, 0-8 day
[13] = ip, 15 mg/kg ip., male rats, 0-14 day

`Cc1nnc(N2N=C(c3ccc(N)cc3)c3cc4c(cc3C[C@H]2C)OCO4)s1` [Example 86, (R)-5-(4-Aminophenyl)-8-methyl-7-(5-methyl-1,3,4-thiadiazol-2-yl)-8,9-dihydro-7H-1,3-dioxolo-[4,5-h][2,3]benzodiazepine] gave an IC50 (AMPA/kainate receptors) of 60 nM, an ED50 (CD1 mice [1]) of 10.6 mg/kg and an ED50 (CD1 mice [2]) of 16.5 mg/kg. For the same compound, the “Neurological symptoms (change, %)” value (Lewis rats [3]; 1.875 mg/kg ip., female rats) was −42%, the “Neurological symptoms (change, %)” value (Lewis rats [3]; 1.875 mg/kg ip., male rats) was “+54%” and the “Neurological symptoms (change, %)” value (Lewis rats [3]; 3.75 mg/kg ip., female rats) was −21%. For the same compound, the “Neurological symptoms (change, %)” value (Lewis rats [3]; 3.75 mg/kg ip., male rats) was −72%, the “Neurological symptoms (change, %)” value (Lewis rats [3]; 7.5 mg/kg ip., female rats) was −62% and the “Neurological symptoms (change, %)” value (Lewis rats [3]; 7.5 mg/kg ip., male rats) was −66%. For the same compound, the “Neurological symptoms (change, %)” value (Lewis rats [3]; 15 mg/kg ip., female rats) was −85%, the “Neurological symptoms (change, %)” value (Lewis rats [3]; 15 mg/kg ip., male rats) was −67% and the change in vivo at 1.875 mg/kg (Lewis rats [3]; [6]) was -40%. It also gave a change in vivo at 1.875 mg/kg (Lewis rats [3]; [7]) of -39%, a change in vivo at 1.875 mg/kg (Lewis rats [3]; ip, 1.875 mg/kg ip., male rats, 0-8 day) of 5% and a change in vivo at 1.875 mg/kg (Lewis rats [3]; ip, 1.875 mg/kg ip., male rats, 0-14 day) of -8%. For the same compound, the change in vivo at 3.75 mg/kg (Lewis rats [3]; [8]) was -3%, the change in vivo at 3.75 mg/kg (Lewis rats [3]; [9]) was -18% and the change in vivo at 3.75 mg/kg (Lewis rats [3]; ip, 3.75 mg/kg ip., male rats, 0-8 day) was -70%. It also gave a change in vivo at 3.75 mg/kg (Lewis rats [3]; ip, 3.75 mg/kg ip., male rats, 0-14 day) of -77%, a change in vivo at 7.5 mg/kg (Lewis rats [3]; ip, 7.5 mg/kg ip., female rats, 0-8 day) of -62% and a change in vivo at 7.5 mg/kg (Lewis rats [3]; ip, 7.5 mg/kg ip., female rats, 0-14 day) of -66%. It also gave a change in vivo at 7.5 mg/kg (Lewis rats [3]; ip, 7.5 mg/kg ip., male rats, 0-8 day) of -65%, a change in vivo at 7.5 mg/kg (Lewis rats [3]; ip, 7.5 mg/kg ip., male rats, 0-14 day) of -70% and a change in vivo at 15 mg/kg (Lewis rats [3]; [10]) of -97%. The change in vivo at 15 mg/kg (Lewis rats [3]; [11]) was -85%, the change in vivo at 15 mg/kg (Lewis rats [3]; [12]) was -93% and the change in vivo at 15 mg/kg (Lewis rats [3]; [13]) was -67%. The “Activity compared to the reference compound (histopathological and pharmacological investigations)” value (Lewis rats [3]; result in words) was “more active than the reference compound GYKI 53773”, the “ED50, tremor induced by Harmaline 40 mg/kg ip.” value (CD1 mice [4]) was 6.0(4.9-7.4) mg/kg po and the “MAX: relative contraction compared to the control at a maximal Ach concentration” value (from here on “MAX: relative contraction”) (BN rats) was 81 ± 14%. The pEC50 of acetylcholine (BN rats) was 4.95 ± 0.59 −log M.

`Cc1nnc(N2N=C(c3ccc(N)c(C)c3)c3cc4c(cc3C[C@H]2C)OCO4)s1` [Example 119, (R)-5-(4-amino-3-methylphenyl)-8-methyl-7-(5-methyl-1,3,4-thiadiazol-2-yl)-8,9-dihydro-7H-1,3-dioxolo-[4,5-h][2,3]benzodiazepine] gave an IC50 (AMPA/kainate receptors) of 26 nM, an ED50 (CD1 mice [1]) of 8.4 mg/kg and an ED50 (CD1 mice [2]) of 6.3 mg/kg. For the same compound, the “Neurological symptoms (change, %)” value (Lewis rats [3]; 0.2 mg/kg i.p., female rats) was −37%, the “Neurological symptoms (change, %)” value (Lewis rats [3]; 0.5 mg/kg i.p., female rats) was −35% and the “Neurological symptoms (change, %)” value (Lewis rats [3]; 0.5 mg/kg p.o., female rats) was −1%. For the same compound, the “Neurological symptoms (change, %)” value (Lewis rats [3]; 1.0 mg/kg i.p., female rats) was −72** %, the “Neurological symptoms (change, %)” value (Lewis rats [3]; 1.0 mg/kg p.o., female rats) was −23% and the “Neurological symptoms (change, %)” value (Lewis rats [3]; 1.875 mg/kg ip., female rats) was −71** %. For the same compound, the “Neurological symptoms (change, %)” value (Lewis rats [3]; 1.875 mg/kg p.o., female rats) was −50** %, the “Neurological symptoms (change, %)” value (Lewis rats [3]; 3.75 mg/kg ip., female rats) was −90** % and the “Neurological symptoms (change, %)” value (Lewis rats [3]; 3.75 mg/kg p.o., female rats) was −61*** %. It also gave a change in vivo at 0.2 mg/kg (Lewis rats [3]; ip, 0.2 mg/kg i.p., female rats, 0-8 day) of -36%, a change in vivo at 0.2 mg/kg (Lewis rats [3]; ip, 0.2 mg/kg i.p., female rats, 0-14 day) of -37% and a change in vivo at 0.5 mg/kg (Lewis rats [3]; ip, 0.5 mg/kg i.p., female rats, 0-8 day) of -33%. It also gave a change in vivo at 0.5 mg/kg (Lewis rats [3]; ip, 0.5 mg/kg i.p., female rats, 0-14 day) of -35%, a change in vivo at 1 mg/kg (Lewis rats [3]; ip, 1.0 mg/kg i.p., female rats, 0-8 day) of -75% and a change in vivo at 1 mg/kg (Lewis rats [3]; ip, 1.0 mg/kg i.p., female rats, 0-14 day) of -72%. The change in vivo at 1.875 mg/kg (Lewis rats [3]; [6]) was -72%, the change in vivo at 1.875 mg/kg (Lewis rats [3]; [7]) was -71% and the change in vivo at 3.75 mg/kg (Lewis rats [3]; [8]) was -97%. The change in vivo at 3.75 mg/kg (Lewis rats [3]; [9]) was -90%, the change in vivo at 0.5 mg/kg (Lewis rats [3]; po, 0.5 mg/kg p.o., female rats, 0-8 day) was 2% and the change in vivo at 0.5 mg/kg (Lewis rats [3]; po, 0.5 mg/kg p.o., female rats, 0-14 day) was -1%. The change in vivo at 1 mg/kg (Lewis rats [3]; po, 1.0 mg/kg p.o., female rats, 0-8 day) was -20%, the change in vivo at 1.875 mg/kg (Lewis rats [3]; po, 1.875 mg/kg p.o., female rats, 0-8 day) was -50% and the change in vivo at 1.875 mg/kg (Lewis rats [3]; po, 1.875 mg/kg p.o., female rats, 0-14 day) was -50%. For the same compound, the “MAX: relative contraction” value (BN rats) was 82 ± 7%, the pEC50 of acetylcholine (BN rats) was 4.35 ± 0.36 −log M and the melting point was 158 to 160 °C. The change in vivo at 1 mg/kg (Lewis rats [5]; 1.0 mg/kg p.o., 0-14 day) was -23%, the change in vivo at 3.75 mg/kg (Lewis rats [5]; 0-8 day) was -64% and the change in vivo at 3.75 mg/kg (Lewis rats [5]; 0-14 day) was -61%.

`CC(=O)N1N=C(c2ccc(N)cc2)c2cc3c(cc2C[C@H]1C)OCO3` [GYKI 53773, (R)-7-acetyl-5-(4-aminophenyl)-8,9-dihydro-8-methyl-7H-1,3-dioxolo[4,5-h][2,3]benzodiazepine, reference compound] gave an IC50 (AMPA/kainate receptors) of 1570 nM, an ED50 (CD1 mice [1]) of 17.4 mg/kg and an ED50 (CD1 mice [2]) of 22.7 mg/kg. The “Neurological symptoms (change, %)” value (Lewis rats [3]; 30 mg/kg ip., female rats) was −41%, the “Neurological symptoms (change, %)” value (Lewis rats [3]; 30 mg/kg ip., male rats) was −26% and the change in vivo at 15 mg/kg (Lewis rats [3]; [10]) was -60%. It also gave a change in vivo at 15 mg/kg (Lewis rats [3]; [11]) of -63%, a change in vivo at 15 mg/kg (Lewis rats [3]; [12]) of -8% and a change in vivo at 15 mg/kg (Lewis rats [3]; [13]) of 7%. For the same compound, the change in vivo at 30 mg/kg (Lewis rats [3]; ip, 30 mg/kg ip., female rats, 0-8 day) was -38%, the change in vivo at 30 mg/kg (Lewis rats [3]; ip, 30 mg/kg ip., female rats, 0-14 day) was -27% and the change in vivo at 30 mg/kg (Lewis rats [3]; ip, 30 mg/kg ip., male rats, 0-8 day) was -43%. For the same compound, the change in vivo at 30 mg/kg (Lewis rats [3]; ip, 30 mg/kg ip., male rats, 0-14 day) was -29%, the “ED50, tremor induced by Harmaline 40 mg/kg ip.” value (CD1 mice [4]) was 9.0(−7.4-10.9) mg/kg po and the “MAX: relative contraction” value (BN rats) was 85 ± 43%. The “Activity in clinical trials on epilepsy patients” value (epilepsy patients) was “active”.
